Experimental findings from patent publication US10016366B2, “Method of preparing lyophilized powder for injection comprising aloe and Panax pseudo-ginseng” (priority 2013, dated 2018) are described below.

Test [1] deals with ovariectomized mice. In words: Serum E2, LH and FSH of ovariectomized mice by ELISA. The format is in vivo, female ICR mice. The note with it: 1 mg/kg, one time per day, 14 days, M ± SD. On the procedure:
(§1) 3.1 Healthy female ICR mice weighted 20±2 g were anaesthetized by ether and fixed in the abdomen. Bilateral ovaries of the mice were extirpated via back incision below the costal bone. The wounds were stitched and the mice were cultured according to conventional methods. After the wounds were cured, vaginal smear examination was performed, one time per day for five consecutive days, to ensure the ovaries were completely extirpated. The mice in the dioestrum (observations of vaginal smears under microscope found a lot of polynuclear leucocytes and few epithelial cells) in the five consecutive days were qualified mice. 48 mice were randomly divided into 6 groups with each group 8 mice, that is, a model group (be administered with equal volume of normal saline), a diethyl stilbestrol group (1 mg/kg), J01 groups (144 mg/kg, 288 mg/kg), J02 groups (180 mg/kg, 360 mg/kg). Another 6 mice with bilateral ovaries were selected as a control group (be administered with equal volume of normal saline). The mice were administered with corresponding drugs, one time per day, for 14 consecutive days. After one hour from the last injection, blood was sampled from the orbital venous plexus, and centrifuged for 10 min at 3000 rpm. The serum was separated and the E2, LH and FSH values thereof were measured using ELISA method. Thereafter, the abdominal cavity was cut open quickly and thymus, spleen, and uterus were separated and weighed to calculate the coefficients of the thymus, spleen, and uterus.
(§2) The mice were administered with corresponding drugs, 5 mL/kg, one time per day, for 14 consecutive days.
(§3) Viscera index: coefficients of the thymus, spleen, and uterus. Viscera index=organ weight/mice body weight*10. Serum index: E2 (estradiol), LH (luteinizing hormone), FSH (follicle stimulating hormone).
(§4) The difference between groups of the measured data is examined based on ANOVA T-TEST using SPSS10.0.

In test [2] the test system is ovariectomized mice. Put plainly: Viscera index (thymus, spleen, uterus coefficients) of ovariectomized mice. The format is in vivo, female ICR mice. As to conditions: 1 mg/kg, one time per day, 14 days, M ± SD. How it is done:
as §1, §2, §3, §4

On to `CC/C(=C(/CC)c1ccc(O)cc1)c1ccc(O)cc1` [Diethylstilbestrol], for which, in the test with ovariectomized mice [1], the “E2 (Estrogen)” value is on record as 113.81 ± 33.85 pg/mL, the “FSH (Follicle Stimulating Hormone)” value was determined as 22.54 ± 6.97 ng/mL and the “LH (luteinizing hormone)” value was 31.33 ± 4.51 ng/mL. In the test with ovariectomized mice [2], this molecule displayed a Spleen index of 66.67 ± 16.93 mg/10 g, a Thymus index of 32.99 ± 8.11 mg/10 g and a Uterus index of 62.67 ± 11.89 mg/10 g.
